Patent publication US9422308B2, “Derivatives of docosahexaenoylethanolamide and uses thereof” (The United States of America, as represented by the …, priority 2012, dated 2016)
Where “and” joins values, the source holds several entries; their conditions need not be identical. Equal values may be shown once. Read-outs that look alike come from different tables or passages of the source.

Assay: pharmacokinetics, plasma and brain, after IP dose in mice
Assay type: in vivo
Details: male C57BL/6 mice; for concentration at 0.083 hr / concentration at 0.25 hr / concentration at 0.5 hr / concentration at 1 hr / concentration at 2 hr / concentration at 3 hr / concentration at 4 hr / concentration at 8 hr: male, C57BL/6, mouse, ip, 50 mg/kg; for half-life: read-out: Terminal t1/2 (converted)
Method: Each time point is […], with 11 time points=33 animals. Each time point was done in triplicate (N=3). The brain and plasma from each animal was analyzed.
Formulation preparation: • IP: 5% DMAC+5% Solutol HS15+90% Saline • 50 mg/kg, 10 mL/kg
Analytical method: • Instrument: LCMSMS-6 (Agilent 6410, triple quadrupole) • Matrix: Mouse plasma and brain homogenate • Analyte(s): NCGC00248435-03 • Internal standard(s): Diclofenac • MS conditions: Positive, ESI • MRM detection • NCGC00248435-03: [M+H]+m/z 400.3→72.2 • Diclofenac: [M+H]+m/z 296.0→214.0
(§1) For plasma samples: An aliquot of 30 μL plasma sample was added with 100 μL ACN (including Diclofenac, 50 ng/mL) for protein precipitation. The mixture was vortexed for 2 min and centrifuged at 12000 rpm for 5 min. The 8 μL supernatant was injected into LC-MS/MS for analysis.
as §1, with “For brain” for “For plasma”, “samples: Brain sample was homogenized for 2 min with 3 volumes (v/w) of homogenizing solution.” for “samples:”, “μL brain homogenate” for “μL plasma”
The IP dosing solution was prepared in 5% DMAC+5% SolutolHS15+90% Saline. Brain was homogenized with 3 volumes (v/w) of PBS (pH7.4) and then analyzed with LC-MS/MS. The Brain concentration was corrected with a dilution factor of 4 as following: Brain concentration=Brain homogenate conc.×4, assuming 1 g wet brain equals to 1 mL. BQL=Below quantifiable limit of 1 ng/mL for NCGC00248435-03 in male C57BL/6 plasma and brain homogenate samples. NA=Not available.

SMILES: CC/C=C\C/C=C\C/C=C\C/C=C\C/C=C\C/C=C\CCC(=O)NCC(C)(C)O [Compound 1, (4Z,7Z,10Z,13Z,16Z,19Z)—N-(2-hydroxy-2-methylpropyl)docosa-4,7,10,13,16,19-hexaenamide]
- clinical observation post dose (IP 50 mg/kg, all animals): Slight mobility reduction
- duration of mobility reduction post dose (IP 50 mg/kg, all animals): 1 h
- brain concentration Dose Normalized Mean (brain, 0.083 hr, IP 50 mg/kg): 0.024
- brain Concentration Individual (brain, 0.083 hr, IP 50 mg/kg, 3 animals, listed as NCGC00248435-03, 50 mg/kg): 310 ng/g and 551 ng/g
- brain concentration Dose Normalized Mean (brain, 0.25 hr, IP 50 mg/kg): 0.054
- brain Concentration Individual (brain, 0.25 hr, IP 50 mg/kg, 3 animals, listed as NCGC00248435-03, 50 mg/kg): 1081 ng/g and 1330 ng/g
- brain concentration Dose Normalized Mean (brain, 0.5 hr, IP 50 mg/kg): 0.236
- brain Concentration Individual (brain, 0.5 hr, IP 50 mg/kg, 3 animals, listed as NCGC00248435-03, 50 mg/kg): 5013 ng/g and 3992 ng/g
- brain concentration Dose Normalized Mean (brain, 1 hr, IP 50 mg/kg): 0.152
- brain Concentration Individual (brain, 1 hr, IP 50 mg/kg, 3 animals, listed as NCGC00248435-03, 50 mg/kg): 2086 ng/g and 3367 ng/g
- brain concentration Dose Normalized Mean (brain, 2 hr, IP 50 mg/kg): 0.089
- brain Concentration Individual (brain, 2 hr, IP 50 mg/kg, 3 animals, listed as NCGC00248435-03, 50 mg/kg): 2463 ng/g and 1494 ng/g
- brain concentration Dose Normalized Mean (brain, 3 hr, IP 50 mg/kg): 0.075
- brain Concentration Individual (brain, 3 hr, IP 50 mg/kg, 3 animals, listed as NCGC00248435-03, 50 mg/kg): 1410 ng/g and 1152 ng/g
- brain concentration Dose Normalized Mean (brain, 4 hr, IP 50 mg/kg): 0.017
- brain Concentration Individual (brain, 4 hr, IP 50 mg/kg, 3 animals, listed as NCGC00248435-03, 50 mg/kg): 234 ng/g and 585 ng/g and 179 ng/g
- brain concentration Dose Normalized Mean (brain, 8 hr, IP 50 mg/kg): 0.001
- brain Concentration Individual (brain, 8 hr, IP 50 mg/kg, 3 animals, listed as NCGC00248435-03, 50 mg/kg): 13.5 ng/g
- brain concentration Dose Normalized Mean (brain, 12 hr, IP 50 mg/kg): BQL (Below quantifiable limit of 1 ng/mL for NCGC00248435-03 in male C57BL/6 plasma and brain homogenate samples)
- brain concentration Mean (brain, 12 hr, IP 50 mg/kg): BQL (Below quantifiable limit of 1 ng/mL for NCGC00248435-03 in male C57BL/6 plasma and brain homogenate samples)
- brain Concentration Individual (brain, 12 hr, IP 50 mg/kg, 3 animals): BQL (Below quantifiable limit of 1 ng/mL for NCGC00248435-03 in male C57BL/6 plasma and brain homogenate samples)
- brain concentration Dose Normalized Mean (brain, 24 hr, IP 50 mg/kg): BQL (Below quantifiable limit of 1 ng/mL for NCGC00248435-03 in male C57BL/6 plasma and brain homogenate samples)
- brain concentration Mean (brain, 24 hr, IP 50 mg/kg): BQL (Below quantifiable limit of 1 ng/mL for NCGC00248435-03 in male C57BL/6 plasma and brain homogenate samples)
- brain Concentration Individual (brain, 24 hr, IP 50 mg/kg, 3 animals): BQL (Below quantifiable limit of 1 ng/mL for NCGC00248435-03 in male C57BL/6 plasma and brain homogenate samples)
- AUCbrain(AUClast) (brain, IP 50 mg/kg): 8458 ng·h/mL
- concentration at 0.083 hr (brain, brain, 0.083 hr, 3 animals, read-out: brain Concentration Individual): 554 ng/g
- concentration at 0.083 hr (brain, brain, 0.083 hr, read-out: brain concentration Mean): 472 ng/g and 1.18 µM
- concentration at 0.25 hr (brain, brain, 0.25 hr, 3 animals, read-out: brain Concentration Individual): 853 ng/g
- concentration at 0.25 hr (brain, brain, 0.25 hr, read-out: brain concentration Mean): 1090 ng/g and 2.72 µM
- concentration at 0.5 hr (brain, brain, 0.5 hr, 3 animals, read-out: brain Concentration Individual): 5110 ng/g
- concentration at 0.5 hr (brain, brain, 0.5 hr, read-out: brain concentration Mean): 4710 ng/g and 11.8 µM
- concentration at 1 hr (brain, brain, 1 hr, 3 animals, read-out: brain Concentration Individual): 3650 ng/g
- concentration at 1 hr (brain, brain, 1 hr, read-out: brain concentration Mean): 3040 ng/g and 7.59 µM
- concentration at 2 hr (brain, brain, 2 hr, 3 animals, read-out: brain Concentration Individual): 1380 ng/g
- concentration at 2 hr (brain, brain, 2 hr, read-out: brain concentration Mean): 1780 ng/g and 4.45 µM
- concentration at 3 hr (brain, brain, 3 hr, 3 animals, read-out: brain Concentration Individual): 1930 ng/g
- concentration at 3 hr (brain, brain, 3 hr, read-out: brain concentration Mean): 1500 ng/g and 3.75 µM
- concentration at 4 hr (brain, brain, 4 hr, read-out: brain concentration Mean): 333 ng/g and 833 nM
- concentration at 8 hr (brain, brain, 8 hr, 3 animals, read-out: brain Concentration Individual): 8.94 ng/g
- concentration at 8 hr (brain, brain, 8 hr, read-out: brain concentration Mean): 12 ng/g and 30 nM
- concentration at 0.083 hr (plasma, plasma, 0.083 hr, 3 animals, read-out: plasma Concentration Individual): 2090 ng/mL
- concentration at 0.083 hr (plasma, plasma, 0.083 hr, read-out: plasma concentration Mean): 2620 ng/mL and 6.56 µM
- concentration at 0.25 hr (plasma, plasma, 0.25 hr, 3 animals, read-out: plasma Concentration Individual): 6550 ng/mL
- concentration at 0.25 hr (plasma, plasma, 0.25 hr, read-out: plasma concentration Mean): 5100 ng/mL and 12.8 µM
- concentration at 0.5 hr (plasma, plasma, 0.5 hr, 3 animals, read-out: plasma Concentration Individual): 5960 ng/mL
- concentration at 0.5 hr (plasma, plasma, 0.5 hr, read-out: plasma concentration Mean): 5790 ng/mL and 14.5 µM
- concentration at 1 hr (plasma, plasma, 1 hr, 3 animals, read-out: plasma Concentration Individual): 4050 ng/mL
- concentration at 1 hr (plasma, plasma, 1 hr, read-out: plasma concentration Mean): 3960 ng/mL and 9.91 µM
- concentration at 2 hr (plasma, plasma, 2 hr, 3 animals, read-out: plasma Concentration Individual): 1130 ng/mL
- concentration at 2 hr (plasma, plasma, 2 hr, read-out: plasma concentration Mean): 1020 ng/mL and 2.56 µM
- concentration at 3 hr (plasma, plasma, 3 hr, 3 animals, read-out: plasma Concentration Individual): 321 ng/mL
- concentration at 3 hr (plasma, plasma, 3 hr, read-out: plasma concentration Mean): 275 ng/mL and 688 nM
- concentration at 4 hr (plasma, plasma, 4 hr, read-out: plasma concentration Mean): 100 ng/mL and 250 nM
- concentration at 8 hr (plasma, plasma, 8 hr, 3 animals, read-out: plasma Concentration Individual): 1.83 ng/mL
- concentration at 8 hr (plasma, plasma, 8 hr, read-out: plasma concentration Mean): 2.11 ng/mL and 5 nM
- Kp (mouse, brain and plasma, IP 50 mg/kg, read-out: AUCbrain/AUCplasma): 1.05
- AUC(0-inf) (mouse, brain, IP 50 mg/kg): 8470 ng·h/mL
- Cmax (mouse, brain, IP 50 mg/kg): 4710 ng/mL
- Tmax (mouse, brain, IP 50 mg/kg): 30 min
- half-life (mouse, brain, IP 50 mg/kg): 47.6 min
- AUC(0-inf) (mouse, plasma, IP 50 mg/kg): 8080 ng·h/mL
- AUC(0-t) (mouse, plasma, IP 50 mg/kg): 8080 ng·h/mL
- Cmax (mouse, plasma, IP 50 mg/kg): 5790 ng/mL
- Tmax (mouse, plasma, IP 50 mg/kg): 30 min
- half-life (mouse, plasma, IP 50 mg/kg): 42.8 min
- plasma concentration Dose Normalized Mean (plasma, 0.083 hr, IP 50 mg/kg): 0.131
- plasma Concentration Individual (plasma, 0.083 hr, IP 50 mg/kg, 3 animals, listed as NCGC00248435-03, 50 mg/kg): 3063 ng/mL and 2707 ng/mL
- plasma concentration Dose Normalized Mean (plasma, 0.25 hr, IP 50 mg/kg): 0.255
- plasma Concentration Individual (plasma, 0.25 hr, IP 50 mg/kg, 3 animals, listed as NCGC00248435-03, 50 mg/kg): 4892 ng/mL and 3849 ng/mL
- plasma concentration Dose Normalized Mean (plasma, 0.5 hr, IP 50 mg/kg): 0.290
- plasma Concentration Individual (plasma, 0.5 hr, IP 50 mg/kg, 3 animals, listed as NCGC00248435-03, 50 mg/kg): 6378 ng/mL and 5036 ng/mL
- plasma concentration Dose Normalized Mean (plasma, 1 hr, IP 50 mg/kg): 0.198
- plasma Concentration Individual (plasma, 1 hr, IP 50 mg/kg, 3 animals, listed as NCGC00248435-03, 50 mg/kg): 4574 ng/mL and 3252 ng/mL
- plasma concentration Dose Normalized Mean (plasma, 2 hr, IP 50 mg/kg): 0.051
- plasma Concentration Individual (plasma, 2 hr, IP 50 mg/kg, 3 animals, listed as NCGC00248435-03, 50 mg/kg): 1064 ng/mL and 870 ng/mL
- plasma concentration Dose Normalized Mean (plasma, 3 hr, IP 50 mg/kg): 0.014
- plasma Concentration Individual (plasma, 3 hr, IP 50 mg/kg, 3 animals, listed as NCGC00248435-03, 50 mg/kg): 255 ng/mL and 249 ng/mL
- plasma concentration Dose Normalized Mean (plasma, 4 hr, IP 50 mg/kg): 0.005
- plasma Concentration Individual (plasma, 4 hr, IP 50 mg/kg, 3 animals, listed as NCGC00248435-03, 50 mg/kg): 78.4 ng/mL and 148 ng/mL and 72.9 ng/mL
- plasma concentration Dose Normalized Mean (plasma, 8 hr, IP 50 mg/kg): 0.000
- plasma Concentration Individual (plasma, 8 hr, IP 50 mg/kg, 3 animals, listed as NCGC00248435-03, 50 mg/kg): 2.94 ng/mL and 1.55 ng/mL
- plasma concentration Dose Normalized Mean (plasma, 12 hr, IP 50 mg/kg): BQL (Below quantifiable limit of 1 ng/mL for NCGC00248435-03 in male C57BL/6 plasma and brain homogenate samples)
- plasma concentration Mean (plasma, 12 hr, IP 50 mg/kg): BQL (Below quantifiable limit of 1 ng/mL for NCGC00248435-03 in male C57BL/6 plasma and brain homogenate samples)
- plasma Concentration Individual (plasma, 12 hr, IP 50 mg/kg, 3 animals): BQL (Below quantifiable limit of 1 ng/mL for NCGC00248435-03 in male C57BL/6 plasma and brain homogenate samples)
- plasma concentration Dose Normalized Mean (plasma, 24 hr, IP 50 mg/kg): BQL (Below quantifiable limit of 1 ng/mL for NCGC00248435-03 in male C57BL/6 plasma and brain homogenate samples)
- plasma concentration Mean (plasma, 24 hr, IP 50 mg/kg): BQL (Below quantifiable limit of 1 ng/mL for NCGC00248435-03 in male C57BL/6 plasma and brain homogenate samples)
- plasma Concentration Individual (plasma, 24 hr, IP 50 mg/kg, 3 animals): BQL (Below quantifiable limit of 1 ng/mL for NCGC00248435-03 in male C57BL/6 plasma and brain homogenate samples)
